Experimental data published in patent US10105357B2, “Indication of antibiotic drugs for preparation of cancer inhibition pharmaceutical composition” (LAUNX BIOMEDICAL CO., LTD., priority 2014, dated 2018).
Like-named read-outs stand apart in the source and are kept apart here.

Experiments:
cancer cell lines = test: Cell viability analysis (WST-1) on cancer cell lines; format: cell-based, human; conditions: drug 10 μM, 72 hours, WST-1; Table 3
[1] = tested on: HI650 (Lung Adenocarcinoma); test: Cell viability analysis, lung cancer HI650; format: cell-based, human; conditions: Homo sapiens, NCI-H1650, 72 h
[2] = tested on: A549 (Lung Adenocarcinoma); test: Cell viability analysis, lung cancer A549; format: cell-based, human; conditions: Homo sapiens, A549, 72 h
[3] = tested on: AGS (Gastric Adenocarcinoma); test: Cell viability analysis, gastric cancer AGS; format: cell-based, human; conditions: for viability at 10 µM: Homo sapiens, 72 h
[4] = tested on: MKN-45 (Gastric Adenocarcinoma); test: Cell viability analysis, gastric cancer MKN-45; format: cell-based, human; conditions: for viability at 10 µM: Homo sapiens, MKN-45, 72 h
[5] = tested on: HepG2 (Hepatocellular Carcinoma); test: Cell viability analysis, hepatic cancer HepG2; format: cell-based, human; conditions: for viability at 10 µM: Homo sapiens, HepG2, 72 h
[6] = tested on: Hep3B (hepatocellular carcinoma); test: Cell viability analysis, hepatic cancer Hep3B; format: cell-based, human; conditions: Hep3B, repeated experiment
[7] = tested on: LoVo (Colorectal Adenocarcinoma); test: Cell viability analysis, colon cancer LoVo; format: cell-based, human; conditions: LoVo, repeated experiment
[8] = tested on: A375 (Amelanotic Melanoma); test: Cell viability analysis, skin cancer A375; format: cell-based, human; conditions: Homo sapiens, A-375, 72 h
[9] = tested on: BCC (basal cell carcinoma); test: Cell viability analysis, skin cancer BCC; format: cell-based, human; conditions: BCC, repeated experiment
[10] = tested on: HeLa (Cervix Adenocarcinoma); test: Cell viability analysis, cervical cancer HeLa; format: cell-based, human; conditions: Homo sapiens, HeLa, 72 h, HeLa; repeated experiment; read-out: The results of antibiotic drug inhibiting cancer cell lines (cell viability analysis), HeLa
[11] = tested on: PC3 (p53−) (Prostate Adenocarcinoma); test: Cell viability analysis, prostate cancer PC3; format: cell-based, human; conditions: for viability at 10 µM: Homo sapiens, 72 h
[12] = tested on: TSGH-8301 (Urinary Bladder Carcinoma); test: Cell viability analysis, bladder cancer TSGH-8301; format: cell-based, human; conditions: for viability at 10 µM: Homo sapiens, 72 h
T24 = test: Cell viability analysis, bladder cancer T24; format: cell-based, human; conditions: T24, repeated experiment
[13] = tested on: MCF7 (Mammary Gland, Adenocarcinoma); test: Cell viability analysis, breast cancer MCF7; format: cell-based, human; conditions: for viability at 10 µM: Homo sapiens, MCF7, 72 h
[14] = tested on: MDA-MB-231 (Mammary Gland, Adenocarcinoma); test: Cell viability analysis, breast cancer MDA-MB-231; format: cell-based, human; conditions: MDA-MB231, repeated experiment
BxPC-3 = test: Cell viability analysis, pancreatic cancer BxPC-3; format: cell-based, human; conditions: Homo sapiens, 72 h; BxPC-3; repeated experiment; read-out: The results of antibiotic drug inhibiting cancer cell lines (cell viability analysis), BxPC-3
AsPC-1 = test: Cell viability analysis, pancreatic cancer AsPC-1; format: cell-based, human; conditions: Homo sapiens, ASPC1, 72 h; AsPC-1; repeated experiment; read-out: The results of antibiotic drug inhibiting cancer cell lines (cell viability analysis), AsPC-1
NIH: OVCAR-3 = test: Cell viability analysis, ovarian cancer NIH: OVCAR-3; format: cell-based, human; conditions: NIH-OVCAR-3, repeated experiment
TOV-21G = test: Cell viability analysis, ovarian cancer TOV-21G; format: cell-based, human; conditions: TOV-21G, repeated experiment
[15] = tested on: SAS (Tongue squamous cell carcinoma); test: Cell viability analysis, tongue cancer SAS; format: cell-based, human; conditions: SAS, repeated experiment
U-2OS = test: Cell viability analysis, osteosarcoma U-2OS; format: cell-based, human; conditions: U2OS, repeated experiment
[16] = tested on: 786-O (Renal adenocarcinoma); test: Cell viability analysis, renal cancer 786-O; format: cell-based, human; conditions: 786-O, repeated experiment
[17] = tested on: HL-60 (Acute Promyelocytic Leukemia); test: Cell viability analysis, leukemia HL-60; format: cell-based, human; conditions: Homo sapiens, HL-60, 72 h, drug 10 μM, 72 hours, WST-1, OD450 nm; read-out: cell viability (survival rate), HL-60
[18] = tested on: HCT116 (p53+) (Colorectal Carcinoma)
[19] = tested on: C-33A (Cervical carcinoma); test: Cell viability analysis, cervical cancer C-33A; format: cell-based, human; conditions: C-33A; repeated experiment

CC(C)c1nc(N(C)S(C)(=O)=O)nc(-c2ccc(F)cc2)c1/C=C/[C@@H](O)C[C@@H](O)CC(=O)O [Rosuvastatin calcium (Crestor), Rosuvastatin calcium]
inhibition effect on different cancer cell lines (cancer cell lines): significant inhibition effect | viability at 10 µM ([1]; H1650, repeated experiment, read-out: The results of antibiotic drug inhibiting cancer cell lines (cell viability analysis), H1650): 76.7% | viability at 10 µM ([1]; drug 10 μM, 72 hours, WST-1, OD450 nm, read-out: cell viability (survival rate), H1650): 80.8% | viability at 10 µM ([2]; A549, repeated experiment, read-out: The results of antibiotic drug inhibiting cancer cell lines (cell viability analysis), A549): 95.1% | viability at 10 µM ([2]; drug 10 μM, 72 hours, WST-1, OD450 nm, read-out: cell viability (survival rate), A549): 97% | viability at 10 µM ([3]; AGS, repeated experiment, read-out: The results of antibiotic drug inhibiting cancer cell lines (cell viability analysis), AGS): 104% | viability at 10 µM ([3]; drug 10 μM, 72 hours, WST-1, OD450 nm, read-out: cell viability (survival rate), AGS): 55.9% | viability at 10 µM ([4]; MKN-45, repeated experiment, read-out: The results of antibiotic drug inhibiting cancer cell lines (cell viability analysis), MKN-45): 110% | viability at 10 µM ([4]; drug 10 μM, 72 hours, WST-1, OD450 nm, read-out: cell viability (survival rate), MKN-45): 83.8% | viability at 10 µM ([5]; HepG2, repeated experiment, read-out: The results of antibiotic drug inhibiting cancer cell lines (cell viability analysis), HepG2): 108% | viability at 10 µM ([5]; drug 10 μM, 72 hours, WST-1, OD450 nm, read-out: cell viability (survival rate), HepG2): 73.7% | viability at 10 µM ([6]; Homo sapiens, 72 h, read-out: The results of antibiotic drug inhibiting cancer cell lines (cell viability analysis), Hep3B): 109% | viability at 10 µM ([7]; Homo sapiens, 72 h, read-out: The results of antibiotic drug inhibiting cancer cell lines (cell viability analysis), LoVo): 103% | viability at 10 µM ([8]; A375, repeated experiment, read-out: The results of antibiotic drug inhibiting cancer cell lines (cell viability analysis), A375): 105% | viability at 10 µM ([8]; drug 10 μM, 72 hours, WST-1, OD450 nm, read-out: cell viability (survival rate), A375): 55.6% | viability at 10 µM ([9]; Homo sapiens, 72 h, read-out: The results of antibiotic drug inhibiting cancer cell lines (cell viability analysis), BCC): 104% | viability at 10 µM [10]: 97.1% | viability at 10 µM ([11]; PC-3, repeated experiment, read-out: The results of antibiotic drug inhibiting cancer cell lines (cell viability analysis), PC-3): 95.7% | viability at 10 µM ([11]; drug 10 μM, 72 hours, WST-1, OD450 nm, read-out: cell viability (survival rate), PC3): 94.3% | viability at 10 µM ([12]; TSGH-8301, repeated experiment, read-out: The results of antibiotic drug inhibiting cancer cell lines (cell viability analysis), TSGH-8301): 113% | viability at 10 µM ([12]; drug 10 μM, 72 hours, WST-1, OD450 nm, read-out: cell viability (survival rate), TSGH): 56% | viability at 10 µM (T24; Homo sapiens, T-24, 72 h, read-out: The results of antibiotic drug inhibiting cancer cell lines (cell viability analysis), T24): 75.9% | viability at 10 µM ([13]; MCF-7, repeated experiment, read-out: The results of antibiotic drug inhibiting cancer cell lines (cell viability analysis), MCF-7): 85.9% | viability at 10 µM ([13]; drug 10 μM, 72 hours, WST-1, OD450 nm, read-out: cell viability (survival rate), MCF7): 88.9% | viability at 10 µM ([14]; Homo sapiens, MDA-MB-231, 72 h, read-out: The results of antibiotic drug inhibiting cancer cell lines (cell viability analysis), MDA-MB231): 90.2% | viability at 10 µM (BxPC-3): 65.5% | viability at 10 µM (AsPC-1): 80.2% | viability at 10 µM (NIH: OVCAR-3; Homo sapiens, 72 h, read-out: The results of antibiotic drug inhibiting cancer cell lines (cell viability analysis), NIH-OVCAR-3): 102% | viability at 10 µM (TOV-21G; Homo sapiens, TOV21G, 72 h, read-out: The results of antibiotic drug inhibiting cancer cell lines (cell viability analysis), TOV-21G): 80.4% | viability at 10 µM ([15]; Homo sapiens, 72 h, read-out: The results of antibiotic drug inhibiting cancer cell lines (cell viability analysis), SAS): 93.3% | viability at 10 µM (U-2OS; Homo sapiens, 72 h, read-out: The results of antibiotic drug inhibiting cancer cell lines (cell viability analysis), U2OS): 102% | viability at 10 µM ([16]; Homo sapiens, 786-0, 72 h, read-out: The results of antibiotic drug inhibiting cancer cell lines (cell viability analysis), 786-O): 92.5% | viability at 10 µM [17]: 81.7% | viability [18]: 85.6%

CN[C@H](CC(C)C)C(=O)N[C@H]1C(=O)N[C@@H](CC(N)=O)C(=O)N[C@H]2C(=O)N[C@H]3C(=O)N[C@H](C(=O)N[C@H](C(=O)O)c4cc(O)cc(O)c4-c4cc3ccc4O)[C@H](O)c3ccc(c(Cl)c3)Oc3cc2cc(c3O[C@@H]2O[C@H](CO)[C@@H](O)[C@H](O)[C@H]2O[C@H]2C[C@](C)(N)[C@H](O)[C@H](C)O2)Oc2ccc(cc2Cl)[C@H]1O.Cl [Vancomycin HCl (Vancocin)]
The results of antibiotic drug inhibiting cancer cell lines (cell viability analysis), AGS ([3]; AGS, repeated experiment): 108.9 | The results of antibiotic drug inhibiting cancer cell lines (cell viability analysis), MKN-45 ([4]; MKN-45, repeated experiment): 116.9 | The results of antibiotic drug inhibiting cancer cell lines (cell viability analysis), HepG2 ([5]; HepG2, repeated experiment): 92.06 | The results of antibiotic drug inhibiting cancer cell lines (cell viability analysis), Hep3B [6]: 94.6 | The results of antibiotic drug inhibiting cancer cell lines (cell viability analysis), LoVo [7]: 101 | The results of antibiotic drug inhibiting cancer cell lines (cell viability analysis), BCC [9]: 96.78 | The results of antibiotic drug inhibiting cancer cell lines (cell viability analysis), C-33A [19]: 100.6 | The results of antibiotic drug inhibiting cancer cell lines (cell viability analysis), PC-3 ([11]; PC-3, repeated experiment): 104.2 | The results of antibiotic drug inhibiting cancer cell lines (cell viability analysis), TSGH-8301 ([12]; TSGH-8301, repeated experiment): 118 | The results of antibiotic drug inhibiting cancer cell lines (cell viability analysis), T24 (T24): 95.32 | The results of antibiotic drug inhibiting cancer cell lines (cell viability analysis), MCF-7 ([13]; MCF-7, repeated experiment): 91.83 | The results of antibiotic drug inhibiting cancer cell lines (cell viability analysis), MDA-MB231 [14]: 90.26 | The results of antibiotic drug inhibiting cancer cell lines (cell viability analysis), NIH-OVCAR-3 (NIH: OVCAR-3): 105.6 | The results of antibiotic drug inhibiting cancer cell lines (cell viability analysis), TOV-21G (TOV-21G): 97.4 | The results of antibiotic drug inhibiting cancer cell lines (cell viability analysis), SAS [15]: 102 | The results of antibiotic drug inhibiting cancer cell lines (cell viability analysis), U2OS (U-2OS): 62.87 | The results of antibiotic drug inhibiting cancer cell lines (cell viability analysis), 786-O [16]: 102.3 | viability [18]: 94.8%
